The results in this text go back to ChEMBL document CHEMBL1134983, “Core-modified sordaricin derivatives: synthesis and antifungal activity” (2002).

Assay type in all cases: functional
Assay [1] deals with Nakaseomyces glabratus. Nature of the assay: Anti-fungal activity against Candida glabrata A28790 (WT).
In assay [2] the test system is Candida albicans. Nature of the assay: Anti-fungal activity against Candida albicans A28235 (WT).
The subject of assay [3] is Candida albicans. Nature of the assay: Anti-fungal activity against Candida albicans A28660 (WT).

In brackets after ≈: the same amount, converted by molar mass.

In the case of `CCCCCCOCC12C[C@@H]3[C@H](C)[C@@H](O)C[C@H]3C3(C=O)CC1C=C(C(C)C)[C@@]23C(=O)O`, the MIC in assay [1] was more than 128 µg/mL; in assay [2], 32 µg/mL (≈ 74 µM); in assay [3], 64 µg/mL (≈ 148 µM).
The corresponding values for `CCCCCCOCC12C[C@@]34[C@@H](CC[C@]3(C)C4(Cl)Cl)C3(C=O)CC1C=C(C(C)C)[C@@]23C(=O)O` are 64 µg/mL (≈ 129 µM), 32 µg/mL (≈ 64.3 µM) and 32 µg/mL (≈ 64.3 µM).
In the same order, the values of `CCCCCCOCC12C[C@@H]3[C@H](C)CC[C@H]3C3(C=O)CC1C=C(C(C)C)[C@@]23C(=O)O` are 0.125 µg/mL (≈ 0.3 µM), 0.06 µg/mL (≈ 0.144 µM) and 0.06 µg/mL (≈ 0.144 µM).
In the same order, the values of `CCCCCCOCC12CC3=C(C)CC[C@H]3C3(C=O)CC1C=C(C(C)C)[C@@]23C(=O)O` are 8 µg/mL (≈ 19.3 µM), 0.125 µg/mL (≈ 0.302 µM) and 0.5 µg/mL (≈ 1.21 µM).
Regarding `CCCCCCOCC12C[C@@H]3[C@H](C)C(=O)C[C@H]3C3(C=O)CC1C=C(C(C)C)[C@@]23C(=O)O`, the MIC in assay [1] was found to be 32 µg/mL (≈ 74.3 µM); in assay [2], 4 µg/mL (≈ 9.29 µM); in assay [3], 8 µg/mL (≈ 18.6 µM).
In the same order, the values of `CCCCCCOCC12C[C@@H]3[C@H](C)[C@H](F)C[C@H]3C3(C=O)CC1C=C(C(C)C)[C@@]23C(=O)O` are 1 µg/mL (≈ 2.3 µM), 0.25 µg/mL (≈ 0.575 µM) and 0.5 µg/mL (≈ 1.15 µM).
The corresponding values for `CCCCCCOCC12C[C@H]3[C@@H](CC[C@]3(C)O)C3(C=O)CC1C=C(C(C)C)[C@@]23C(=O)O` are 32 µg/mL (≈ 74 µM), 4 µg/mL (≈ 9.25 µM) and 8 µg/mL (≈ 18.5 µM).
On to `COC1C(O)[C@H](O)[C@H](OC[C@@]23C[C@@H]4[C@H](C)CC[C@H]4[C@@]4(C=O)CC2C=C(C(C)C)[C@@]34C(=O)O)O[C@@H]1C` (single isomer, unassigned) [SORDARIN], for which the minimum inhibitory concentration (MIC) in assay [1] was more than 128 µg/mL; in assay [2], 16 µg/mL (≈ 32.5 µM).
